Where a name gives a salt, the structure may show the parent alone. Where only a bound is given, the exact number is not on record here.

By IC50 is commonly meant the point on the concentration scale where inhibition reaches its midpoint. The Ki is a dissociation constant, usually derived from enzyme kinetics or from competition with a known ligand.

The target of one data set is T1, Thymidine phosphorylase (Escherichia coli K-12, UniProt P07650). Put plainly: Noncompetitive inhibition of GST-tagged Escherichia coli recombinant thymidine phosphorylase expressed in Escherichia coli using thymidine as substrate after 20 to 60 mins by HPLC analysis.
T1 sequence (P07650 whole entry): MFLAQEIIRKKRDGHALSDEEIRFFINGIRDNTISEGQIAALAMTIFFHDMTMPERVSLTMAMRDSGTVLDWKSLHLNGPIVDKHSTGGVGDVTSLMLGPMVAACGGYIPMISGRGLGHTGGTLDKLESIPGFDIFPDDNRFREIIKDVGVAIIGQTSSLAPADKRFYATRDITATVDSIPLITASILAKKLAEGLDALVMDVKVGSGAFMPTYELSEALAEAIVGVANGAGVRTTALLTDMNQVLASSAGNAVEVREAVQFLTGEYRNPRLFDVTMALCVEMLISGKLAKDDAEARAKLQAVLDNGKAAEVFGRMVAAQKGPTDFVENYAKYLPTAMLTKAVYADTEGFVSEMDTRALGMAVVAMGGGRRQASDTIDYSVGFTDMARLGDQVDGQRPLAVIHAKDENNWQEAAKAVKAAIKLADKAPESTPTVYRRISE
Details: not given
On to `Oc1ncnc2c1ncn2[C@@H]1O[C@H](COC(c2ccccc2)(c2ccccc2)c2ccccc2)[C@@H](O)[C@H]1O`, for which the IC50 is 44 µM.

Another data set concerns the target T1, Thymidine phosphorylase. Put plainly: Mixed-type inhibition of Escherichia coli recombinant thymidine phosphorylase using thymidine as substrate by Lineweaver-Burk plot analysis.
Details: not given
As to `O=c1[nH]c(CSc2nc3c(-c4ccc(S(F)(F)(F)(F)F)cc4)cnn3c(=O)[nH]2)c(Cl)c(=O)[nH]1`, the Ki was determined as 0.44 µM.

The target in another data set is T1, Thymidine phosphorylase. Description: Inhibition of Escherichia coli recombinant thymidine phosphorylase using thymidine as substrate after 4 to 20 mins by UV spectrophotometry.
Details: not given
With `O=c1[nH]c(CSc2nc3c(-c4ccc(F)cc4)cnn3c(=O)[nH]2)c(Cl)c(=O)[nH]1`, the IC50 was 8 µM.

Take `N#Cc1cnn2c(=O)[nH]c(=S)[nH]c12`: the IC50 was > 100 µM.

As for `Cc1cc2nc(SCc3[nH]c(=O)[nH]c(=O)c3Cl)[nH]c(=O)n2n1`, the IC50 amounted to 55.5 µM.

Regarding `CCOC(=O)c1cnn2c(=O)[nH]c(SCc3[nH]c(=O)[nH]c(=O)c3Cl)nc12`, the IC50 amounted to 47.2 µM.

As to `Cc1ccc(-c2cc3nc(SCc4[nH]c(=O)[nH]c(=O)c4Cl)[nH]c(=O)n3n2)cc1`, the IC50 amounted to 9.8 µM.

As to `O=c1[nH]c(CSc2nc3ccnn3c(=O)[nH]2)c(Cl)c(=O)[nH]1`, the IC50 was found to be 67.8 µM.

On to `CCOC(=O)c1cnn2c(=O)[nH]c(=S)[nH]c12`, for which the IC50 was > 100 µM.

For the molecule `CCOc1ccc(-c2cnn3c(=O)[nH]c(SCc4[nH]c(=O)[nH]c(=O)c4Cl)nc23)cc1`, the IC50 was determined as 12 µM.

In the case of `Cc1ccc(-c2cnn3c(=O)[nH]c(SCc4[nH]c(=O)[nH]c(=O)c4Cl)nc23)cc1`, the IC50 was determined as 7.3 µM.

Take `O=c1[nH]c(CSc2nc3c(-c4ccc(I)cc4)cnn3c(=O)[nH]2)c(Cl)c(=O)[nH]1`: the IC50 was determined as 0.61 µM.

Turning to `O=c1[nH]c(CSc2nc3cc(-c4ccc(Br)cc4)nn3c(=O)[nH]2)c(Cl)c(=O)[nH]1`, the IC50 came out at 6.2 µM.

Consider `O=c1[nH]c(CSc2nc3c(-c4ccc(S(F)(F)(F)(F)F)cc4)cnn3c(=O)[nH]2)c(Cl)c(=O)[nH]1`, for which the IC50 was 0.36 µM.

Consider `O=c1[nH]c(CSc2nc3c(-c4ccc(Br)cc4)cnn3c(=O)[nH]2)c(Cl)c(=O)[nH]1`, for which the IC50 was 1.2 µM.

Take `CC(C)(C)c1ccc(-c2cnn3c(=O)[nH]c(SCc4[nH]c(=O)[nH]c(=O)c4Cl)nc23)cc1`: the IC50 amounted to 1.8 µM.

Regarding `CCOc1ccc(-c2cc3[nH]c(=S)[nH]c(=O)n3n2)cc1`, the IC50 was 6.1 µM.

As to `COc1ccc(-c2cc3nc(SCc4[nH]c(=O)[nH]c(=O)c4Cl)[nH]c(=O)n3n2)cc1`, the IC50 came out at 11.8 µM.

`O=c1[nH]c(CSc2nc3cc(-c4ccc(Cl)cc4)nn3c(=O)[nH]2)c(Cl)c(=O)[nH]1`: the IC50 turned out to be 10.3 µM.

With `O=c1[nH]c(CSc2nc3cc(-c4ccc(F)cc4)nn3c(=O)[nH]2)c(Cl)c(=O)[nH]1`, the IC50 worked out at 22.6 µM.

In the case of `O=c1[nH]c(CSc2nc3c(-c4ccc(C(F)(F)F)cc4)cnn3c(=O)[nH]2)c(Cl)c(=O)[nH]1`, the IC50 came out at 1.3 µM.

As for `O=c1[nH]c(CSc2nc3c(-c4ccccc4)cnn3c(=O)[nH]2)c(Cl)c(=O)[nH]1`, the IC50 worked out at 9.7 µM.

Turning to `COc1ccc(-c2cnn3c(=O)[nH]c(SCc4[nH]c(=O)[nH]c(=O)c4Cl)nc23)cc1`, the IC50 is 21.3 µM.

For `CC(C)(C)c1ccc(-c2cc3nc(SCc4[nH]c(=O)[nH]c(=O)c4Cl)[nH]c(=O)n3n2)cc1`, the IC50 turned out to be 1.5 µM.

On to `O=c1[nH]c(CSc2nc3c(Cl)cnn3c(=O)[nH]2)c(Cl)c(=O)[nH]1`, for which the IC50 stood at 49.8 µM.

As to `O=c1[nH]c(CSc2nc3cc(C(F)(F)F)nn3c(=O)[nH]2)c(Cl)c(=O)[nH]1`, the IC50 stood at 31 µM.

For `O=c1[nH]c(CSc2nc3c(Br)cnn3c(=O)[nH]2)c(Cl)c(=O)[nH]1`, the IC50 is 40 µM.

For the molecule `O=c1[nH]c(CSc2nc3c(I)cnn3c(=O)[nH]2)c(Cl)c(=O)[nH]1`, the IC50 is 30.8 µM.

For `N=C1CCCN1Cc1[nH]c(=O)[nH]c(=O)c1Cl` [TIPIRACIL HYDROCHLORIDE], the IC50 turned out to be 0.0027 µM.

`O=c1[nH]c(CSc2nc3cc(-c4ccc(C(F)(F)F)cc4)nn3c(=O)[nH]2)c(Cl)c(=O)[nH]1`: the IC50 was determined as 2.1 µM.

Regarding `N#Cc1cnn2c(=O)[nH]c(SCc3[nH]c(=O)[nH]c(=O)c3Cl)nc12`, the IC50 was 38.8 µM.

Take `CCOc1ccc(-c2cc3nc(SCc4[nH]c(=O)[nH]c(=O)c4Cl)[nH]c(=O)n3n2)cc1`: the IC50 was determined as 10 µM.

As to `O=c1[nH]c(CSc2nc3c(-c4ccc(Cl)cc4)cnn3c(=O)[nH]2)c(Cl)c(=O)[nH]1`, the IC50 is 2.8 µM.

As for `Cc1cnn2c(=O)[nH]c(SCc3[nH]c(=O)[nH]c(=O)c3Cl)nc12`, the IC50 worked out at 35.3 µM.

In the case of `O=c1[nH]c(CSc2nc3cc(-c4ccccc4)nn3c(=O)[nH]2)c(Cl)c(=O)[nH]1`, the IC50 was determined as 13 µM.

In the case of `CC(C)(C)c1cc2nc(SCc3[nH]c(=O)[nH]c(=O)c3Cl)[nH]c(=O)n2n1`, the IC50 was 51.2 µM.

Tested on in another data set: not listed separately
Description: Cytotoxicity against human MDA-MB-231 cells assessed as cell viability at 100 uM by MTT assay relative to control. In kind it is cell-based. The following applies: read-out: Activity.
Consider `O=c1[nH]c(CSc2nc3c(-c4ccc(S(F)(F)(F)(F)F)cc4)cnn3c(=O)[nH]2)c(Cl)c(=O)[nH]1`, for which the viability at 100 µM is 67%.

These data come from ChEMBL document CHEMBL3085661, “Fragment-based approach to the design of 5-chlorouracil-linked-pyrazolo[1,5-a][1,3,5]triazines as thymidine phosphorylase inhibitors” (Eur J Med Chem, 2013).
